These results are taken from publication PMC4385452 (Bioorganic & medicinal chemistry letters, 2015).

Series [1] in a line: intrinsic clearance in liver microsomes. The settings on record: mouse. For orientation: Liver microsomes are a subcellular fraction often used to study metabolism.
In another series the target is T1, human CHT (Homo sapiens, UniProt Q9GZV3, L531A/V532A).
T1 sequence (Q9GZV3 1-580 L531A/V532A): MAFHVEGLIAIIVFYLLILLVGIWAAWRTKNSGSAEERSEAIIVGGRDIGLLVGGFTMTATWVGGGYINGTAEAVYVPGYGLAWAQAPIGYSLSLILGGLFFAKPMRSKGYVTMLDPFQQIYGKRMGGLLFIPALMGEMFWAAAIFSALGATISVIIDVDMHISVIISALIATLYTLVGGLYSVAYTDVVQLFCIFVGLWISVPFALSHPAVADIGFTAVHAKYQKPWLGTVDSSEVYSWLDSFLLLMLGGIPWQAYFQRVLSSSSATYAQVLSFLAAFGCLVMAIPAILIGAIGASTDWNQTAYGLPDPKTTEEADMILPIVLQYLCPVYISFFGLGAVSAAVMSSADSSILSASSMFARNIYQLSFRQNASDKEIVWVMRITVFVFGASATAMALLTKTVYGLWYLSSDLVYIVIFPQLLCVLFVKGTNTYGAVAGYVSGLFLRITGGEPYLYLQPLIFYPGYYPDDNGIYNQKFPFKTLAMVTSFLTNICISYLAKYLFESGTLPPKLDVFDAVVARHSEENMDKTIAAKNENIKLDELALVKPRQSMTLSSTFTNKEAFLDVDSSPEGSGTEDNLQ
In kind it is cell-based.

Series [2] is described as follows: cassette tissue distribution study in mice. Type of series: in vivo, mouse. The settings on record: 1.0 mg/kg per compound intraperitoneal cassette dose, n = 3.
Series [3] concerns dopamine transporter (DAT). The settings on record: at the highest concentration tested; cited from earlier work.

Consider `COc1ccc(C(=O)NCc2csc(C)n2)cc1OC1CCN(C(C)C)CC1` [Compound 10b], for which, in series [1], the intrinsic metabolic clearance (CLint scaled) (as a rule, a measure of how fast metabolising enzymes remove a compound, apart from limits set by blood flow) came to 979 mL/min/kg. Consider `COc1ccc(C(=O)NCc2ccc(C)s2)cc1OC1CCN(C(C)C)CC1` [Compound 10c], for which the “activity at the high choline concentration” value on human CHT (high (10 μM) choline) is recorded as “modest inhibitory activity”. Moreover, the “activity at the low choline concentration” value at human CHT (low (100 nM) choline) is “inactive”.

On to `COc1ccc(C(=O)NCc2cc(C(C)C)no2)cc1OC1CCN(C(C)C)CC1` [Compound 10e], for which the Brain concentration result in series [2] is on record as “BLQ”. Further, the CLint scaled in series [1] is 781 mL/min/kg. Turning to `CCn1nc(C)c(CNC(=O)c2ccc(OC)c(OC3CCN(C(C)C)CC3)c2)c1C` [Compound 10f], the Brain concentration entry in series [2] was “BLQ”. Moreover, in series [1], the CLint scaled worked out at 29.9 mL/min/kg. In series [1], `COc1ccc(C(=O)NC(C)Cc2ccccn2)cc1OC1CCN(C(C)C)CC1` (stereo not drawn) [Compound 10k] gave an intrinsic metabolic clearance (CLint scaled) of 106 mL/min/kg. On to `COc1ccc(C(=O)NCc2cc(C(C)C)no2)cc1OC1CCNCC1` [Compound 10l], for which the “CHT inhibitory activity” value at human CHT is listed as “much less active”. In the case of `COc1ccc(C(=O)NCc2cc(C(C)C)no2)cc1OC1CCN(C)CC1` [Compound 10m, N-((3-isopropylisoxazol-5-yl)methyl)-4-methoxy-3-((1-methylpiperidin-4-yl)oxy)benzamide], the DAT inhibitory activity entry in series [3] is “did not show any inhibitory activity”. Also, the “CHT inhibitory activity” value on human CHT was “equipotent with the isopropyl analog”. In series [1], this compound had a CLint scaled of 43.7 mL/min/kg.

`COc1ccc(C(=O)NCc2cc(C(C)C)no2)cc1OC1CCCN(C)C1` (stereo not drawn) [Compound 10n]: the “CHT inhibitory activity” value on human CHT is given as “tolerated, but less active”. The same measure, in the same setting: the result for `COc1ccc(C(=O)NCc2cc(C(C)C)no2)cc1OC1CCCCC1` [Compound 10o] reads “inactive”. In the case of `COc1ccc(C(=O)NCc2cc(C(C)C)no2)cc1OC1CCCC1` [Compound 10p], the “CHT inhibitory activity” value at human CHT is “inactive”.

In series [1], `COc1ccc(C(=O)NCc2cc(C(C)C)no2)cc1OCCN1CCCCC1` [Compound 10q] registered a CLint scaled of 167 mL/min/kg.

For `COc1ccc(C(=O)NCc2cc(C(C)C)no2)cc1OCCN1CCOCC1` [Compound 10r], at human CHT (morpholine 10r versus piperidine 10q), the “fold less active than the piperidine analog” value is recorded as ~ 10 fold. Regarding `COc1ccc(C(=O)NCc2cc(C(C)C)no2)cc1O` [Compound 10v], the “CHT inhibitory activity” value at human CHT is “inactive”.
